The results in this text go back to article PMC12662201, “How ATP and dATP reposition class III ribonucleotide reductase cone domains to regulate enzyme activity” (Science Advances, 2025).

For one experiment, the target named is T1, ΔConeOnly-StNrdD (Streptococcus thermophilus, UniProt A0A3G6JS83).
T1 construct: gene DF198_09700; cone domain removed (residues 1 to 115 deleted), connector kept; N-terminal His6 with thrombin site (pET15b); expressed in E. coli T7 Express
T1 sequence (A0A3G6JS83 116-734): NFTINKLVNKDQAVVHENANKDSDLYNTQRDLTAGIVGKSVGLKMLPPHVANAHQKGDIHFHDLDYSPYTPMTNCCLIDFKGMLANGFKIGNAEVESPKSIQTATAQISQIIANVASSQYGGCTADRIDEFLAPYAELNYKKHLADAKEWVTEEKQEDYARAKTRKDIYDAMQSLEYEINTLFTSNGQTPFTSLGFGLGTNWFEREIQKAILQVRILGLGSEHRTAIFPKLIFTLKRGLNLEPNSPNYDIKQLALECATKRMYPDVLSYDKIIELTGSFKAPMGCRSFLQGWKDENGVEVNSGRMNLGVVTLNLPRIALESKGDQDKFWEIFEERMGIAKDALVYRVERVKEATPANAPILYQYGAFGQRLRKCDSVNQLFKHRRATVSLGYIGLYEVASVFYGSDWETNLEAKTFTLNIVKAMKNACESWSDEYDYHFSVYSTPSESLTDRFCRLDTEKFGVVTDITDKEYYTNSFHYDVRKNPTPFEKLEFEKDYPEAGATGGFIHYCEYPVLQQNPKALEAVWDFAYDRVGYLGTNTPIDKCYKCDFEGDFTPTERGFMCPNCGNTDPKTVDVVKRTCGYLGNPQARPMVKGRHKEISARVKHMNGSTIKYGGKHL
Briefly: LC-MS/MS of dGTP product after glycyl radical activation. The experiment is classed as biochemical. The settings on record: 1 mM GTP, 1 mM TTP, no activity effector; 0.15 µM glycyl radical; 37 °C, 120 s; anaerobic.

In the next experiment the target is T2, StNrdD (WT-StNrdD) (Streptococcus thermophilus, UniProt A0A3G6JS83).
T2 construct: gene DF198_09700; full length, 734 residues, N-terminal His6 with thrombin site (pET15b), tag cleaved before crystallization; expressed in E. coli T7 Express; dimer; Cys400 thiyl, Gly697 glycyl radical
T2 sequence (A0A3G6JS83 1-734): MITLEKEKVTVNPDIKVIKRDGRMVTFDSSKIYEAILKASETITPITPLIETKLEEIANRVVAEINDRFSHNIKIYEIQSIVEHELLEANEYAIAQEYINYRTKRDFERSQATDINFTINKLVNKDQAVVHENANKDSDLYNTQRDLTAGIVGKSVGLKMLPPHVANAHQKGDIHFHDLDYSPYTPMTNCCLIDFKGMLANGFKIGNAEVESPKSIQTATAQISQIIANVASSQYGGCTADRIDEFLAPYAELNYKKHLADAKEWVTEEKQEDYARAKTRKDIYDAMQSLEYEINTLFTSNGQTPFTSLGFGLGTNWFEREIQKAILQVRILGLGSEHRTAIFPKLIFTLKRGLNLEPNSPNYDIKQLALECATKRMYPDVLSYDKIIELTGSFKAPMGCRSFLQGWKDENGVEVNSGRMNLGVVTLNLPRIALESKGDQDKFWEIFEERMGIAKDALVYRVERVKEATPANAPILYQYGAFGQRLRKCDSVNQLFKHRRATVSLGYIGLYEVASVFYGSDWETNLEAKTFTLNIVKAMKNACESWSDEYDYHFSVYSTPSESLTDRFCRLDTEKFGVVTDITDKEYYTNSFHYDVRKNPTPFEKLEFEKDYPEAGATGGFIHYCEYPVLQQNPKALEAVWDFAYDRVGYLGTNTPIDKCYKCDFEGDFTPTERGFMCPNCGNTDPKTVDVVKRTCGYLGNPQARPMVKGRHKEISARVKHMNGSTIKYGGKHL
Briefly: cryo-EM ([…] Å). The experiment is classed as binding. Conditions: allosteric specificity effector site at dimer interface; seen with both ATP and dATP; 1 mM TTP, 1 mM GTP, pH 7.5.

Regarding `Nc1nc2c(ncn2[C@@H]2O[C@H](COP(=O)(O)OP(=O)(O)OP(=O)(O)O)[C@@H](O)[C@H]2O)c(=O)[nH]1` [GTP], the “LC-MS/MS of dGTP product after glycyl radical activation” value at ΔConeOnly-StNrdD was “GTP turnover proceeds in the absence of allosteric inhibitor dATP, although at a lower yield”. As to `Cc1cn([C@H]2C[C@H](O)[C@@H](COP(=O)(O)OP(=O)(O)OP(=O)(O)O)O2)c(=O)[nH]c1=O` [TTP], the “cryo-EM (3.6 Å)” value at StNrdD (WT-StNrdD) is reported as “both structures have density for the TTP specificity effector bound at the dimer interface”.
